Our source for the IC50 values is patent US20130303509A1, “NAMPT INHIBITORS” (AbbVie Inc., priority 2012, published 2013).

pIC50: −log10 of the molar value.

The test system of this assay is PC3 cells. Kind of assay: NAMPT Cell Proliferation Assay. In kind it is cell-based. The note with it: Homo sapiens, PC-3, 120 h, 5 days incubation, cell viability by Cell Titer Glo. In outline:
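Seeded at 500 cells/well in RPMI with 10% heat-inactivated FBS and left to attach overnight at 37° C, 5% CO2. Compounds were added as 10-fold dilutions […] for 5 days, then viability was read by CellTiter-Glo. IC50s came from sigmoidal fits of percent inhibition.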
`O=C(Nc1ccc(O[C@H]2CCN(C(=O)c3ccccc3)C2)cc1)[C@H]1CCN(c2cccnn2)C1` [Example 824, (3S)—N-(4-{[(3S)-1-benzoylpyrrolidin-3-yl]oxy}phenyl)-1-(pyridazin-3-yl)pyrrolidine-3-carboxamide] gave a pIC50 of 7.15.

Take `O=C(Nc1ccc(O[C@H]2CCN(C(=O)c3ccccc3F)C2)cc1)[C@H]1CCN(c2cccnn2)C1` [Example 825, (3S)—N-(4-{[(3S)-1-(2-fluorobenzoyl)pyrrolidin-3-yl]oxy}phenyl)-1-(pyridazin-3-yl)pyrrolidine-3-carboxamide]: the pIC50 is 7.21.

For the compound `O=C(Nc1ccc(O[C@H]2CCN(C(=O)c3cc(F)cc(F)c3)C2)cc1)[C@H]1CCN(c2cccnn2)C1` [Example 826, (3S)—N-(4-{[(3S)-1-(3,5-difluorobenzoyl)pyrrolidin-3-yl]oxy}phenyl)-1-(pyridazin-3-yl)pyrrolidine-3-carboxamide], the pIC50 was 7.01.

`CC(C)(C)C(=O)N1CC[C@H](Oc2ccc(NC(=O)[C@H]3CCN(c4cccnn4)C3)cc2)C1` [Example 827, (3S)—N-(4-{[(3S)-1-(2,2-dimethylpropanoyl)pyrrolidin-3-yl]oxy}phenyl)-1-(pyridazin-3-yl)pyrrolidine-3-carboxamide] showed a pIC50 of 7.13.

Turning to `O=C(Nc1ccc(C2CCN(C(=O)c3ccccc3F)CC2)cc1F)C1CN(c2cccnn2)C1` [Example 828, N-{2-fluoro-4-[1-(2-fluorobenzoyl)piperidin-4-yl]phenyl}-1-(pyridazin-3-yl)azetidine-3-carboxamide], the pIC50 is 9.08.

Regarding `O=C(Nc1ccc(C2CCN(C(=O)c3ccccc3)CC2)cc1F)C1CN(c2cccnn2)C1` [Example 829, N-[4-(1-benzoylpiperidin-4-yl)-2-fluorophenyl]-1-(pyridazin-3-yl)azetidine-3-carboxamide], the pIC50 was 8.53.

As to `O=C(Nc1ccc(C2CCN(C(=O)c3cccc(F)c3)CC2)cc1F)C1CN(c2cccnn2)C1` [Example 830, N-{2-fluoro-4-[1-(3-fluorobenzoyl)piperidin-4-yl]phenyl}-1-(pyridazin-3-yl)azetidine-3-carboxamide], the pIC50 was 8.10.

`Cc1ccccc1C(=O)N1CCC(c2ccc(NC(=O)C3CN(c4cccnn4)C3)c(F)c2)CC1` [Example 831, N-{2-fluoro-4-[1-(2-methylbenzoyl)piperidin-4-yl]phenyl}-1-(pyridazin-3-yl)azetidine-3-carboxamide] had a pIC50 of 8.14.

Compound `O=C(Nc1ccc(C2CCN(C(=O)c3ccc(F)cc3)CC2)cc1F)C1CN(c2cccnn2)C1` [Example 832, N-{2-fluoro-4-[1-(4-fluorobenzoyl)piperidin-4-yl]phenyl}-1-(pyridazin-3-yl)azetidine-3-carboxamide] showed a pIC50 of 7.78.

In turn, `O=C(Nc1ccc(C2CCN(C(=O)c3ccc(F)cc3F)CC2)cc1F)C1CN(c2cccnn2)C1` [Example 833, N-{4-[1-(2,4-difluorobenzoyl)piperidin-4-yl]-2-fluorophenyl}-1-(pyridazin-3-yl)azetidine-3-carboxamide] had a pIC50 of 8.18.

The compound `O=C(Nc1ccc(C2CCN(C(=O)c3cc(F)cc(F)c3)CC2)cc1F)C1CN(c2cccnn2)C1` [Example 834, N-{4-[1-(3,5-difluorobenzoyl)piperidin-4-yl]-2-fluorophenyl}-1-(pyridazin-3-yl)azetidine-3-carboxamide] gave a pIC50 of 7.84.

Consider `CC(C)(C)CC(=O)N1CCC(c2ccc(NC(=O)C3CN(c4cccnn4)C3)c(F)c2)CC1` [Example 835, N-{4-[1-(3,3-dimethylbutanoyl)piperidin-4-yl]-2-fluorophenyl}-1-(pyridazin-3-yl)azetidine-3-carboxamide], for which the pIC50 is 8.63.

Regarding `Cc1ccc(N2CC[C@H](C(=O)Nc3ccc(OC4CCN(C(=O)c5ccccc5F)CC4)cc3)C2)nn1` [Example 836, (3S)—N-(4-{[1-(2-fluorobenzoyl)piperidin-4-yl]oxy}phenyl)-1-(6-methylpyridazin-3-yl)pyrrolidine-3-carboxamide], the negative-log IC50 (pIC50) was 6.18.

In turn, `Cc1ccc(N2CC[C@H](C(=O)Nc3ccc(OC4CCN(C(=O)c5ccccc5)CC4)cc3)C2)nn1` [Example 837, (3S)—N-{4-[(1-benzoylpiperidin-4-yl)oxy]phenyl}-1-(6-methylpyridazin-3-yl)pyrrolidine-3-carboxamide] had a pIC50 of 6.11.

`Cc1ccc(N2CC[C@H](C(=O)Nc3ccc(OC4CCN(C(=O)C(C)(C)C)CC4)cc3)C2)nn1` [Example 838, (3S)—N-(4-{[1-(2,2-dimethylpropanoyl)piperidin-4-yl]oxy}phenyl)-1-(6-methylpyridazin-3-yl)pyrrolidine-3-carboxamide]: the pIC50 was 5.75.

`Cc1ccc(N2CC[C@H](C(=O)Nc3ccc(OC4CCN(C(=O)C5CCCCC5)CC4)cc3)C2)nn1` [Example 839, (3S)—N-(4-{[1-(cyclohexylcarbonyl)piperidin-4-yl]oxy}-phenyl)-1-(6-methylpyridazin-3-yl)pyrrolidine-3-carboxamide] gave a pIC50 of 5.70.

In turn, `CC(C)C(=O)N1C2CCC1CC(c1ccc(NC(=O)C3CN(c4cccnn4)C3)cc1)C2` (centres unmarked) [Example 840, N-{4-[8-(2-methylpropanoyl)-8-azabicyclo[3.2.1]oct-3-yl]phenyl}-1-(pyridazin-3-yl)azetidine-3-carboxamide] gave a pIC50 of 8.55.

`O=C(Nc1ccc(C2CC3CCC(C2)N3C(=O)CCC(F)(F)F)cc1)C1CN(c2cccnn2)C1` (centres unmarked) [Example 841, 1-(pyridazin-3-yl)-N-{4-[8-(4,4,4-trifluorobutanoyl)-8-azabicyclo[3.2.1]oct-3-yl]phenyl}azetidine-3-carboxamide]: the pIC50 was 8.45.

For the compound `O=C(Nc1ccc(C2CC3CCC(C2)N3C(=O)c2ccccc2)cc1)C1CN(c2cccnn2)C1` (centres unmarked) [Example 842, N-[4-(8-benzoyl-8-azabicyclo[3.2.1]oct-3-yl)phenyl]-1-(pyridazin-3-yl)azetidine-3-carboxamide], the pIC50 is 9.18.

Consider `O=C(Nc1ccc(C2CC3CCC(C2)N3C(=O)c2ccccc2F)cc1)C1CN(c2cccnn2)C1` (centres unmarked) [Example 843, N-{4-[8-(2-fluorobenzoyl)-8-azabicyclo[3.2.1]oct-3-yl]phenyl}-1-(pyridazin-3-yl)azetidine-3-carboxamide], for which the pIC50 was 9.21.

The compound `CC(C)(C)C(=O)N1C2CCC1CC(c1ccc(NC(=O)C3CN(c4cccnn4)C3)cc1)C2` (centres unmarked) [Example 844, N-{4-[8-(2,2-dimethylpropanoyl)-8-azabicyclo[3.2.1]oct-3-yl]phenyl}-1-(pyridazin-3-yl)azetidine-3-carboxamide] had a pIC50 of 8.60.

Compound `CC1(C(=O)N2C3CCC2CC(c2ccc(NC(=O)C4CN(c5cccnn5)C4)cc2)C3)CC1` (centres unmarked) [Example 845, N-(4-{8-[(1-methylcyclopropyl)carbonyl]-8-azabicyclo[3.2.1]oct-3-yl}phenyl)-1-(pyridazin-3-yl)azetidine-3-carboxamide] showed a negative-log IC50 (pIC50) of 8.68.

With `COCCn1nc(CC(C)C)cc1-c1ccc(NC(=O)C2CN(c3cccnn3)C2)cc1` [Example 846, N-{4-[1-(2-methoxyethyl)-3-(2-methylpropyl)-1H-pyrazol-5-yl]phenyl}-1-(pyridazin-3-yl)azetidine-3-carboxamide], the pIC50 is 8.14.

For the compound `CC(C)(C)C(=O)N1CCC(c2ccc(C(=O)NC3CN(c4cccnn4)C3)s2)CC1` [Example 847, 5-[1-(2,2-dimethylpropanoyl)piperidin-4-yl]-N-[1-(pyridazin-3-yl)azetidin-3-yl]thiophene-2-carboxamide], the pIC50 is 6.94.

Take `CC1(C(=O)N2CCC(c3ccc(C(=O)NC4CN(c5cccnn5)C4)s3)CC2)CC1` [Example 848, 5-{1-[(1-methylcyclopropyl)carbonyl]piperidin-4-yl}-N-[1-(pyridazin-3-yl)azetidin-3-yl]thiophene-2-carboxamide]: the pIC50 is 6.22.

Compound `O=C(NC1CN(c2cccnn2)C1)c1ccc(C2CCN(C(=O)CC(F)(F)F)CC2)s1` [Example 849, N-[1-(pyridazin-3-yl)azetidin-3-yl]-5-[1-(3,3,3-trifluoropropanoyl)piperidin-4-yl]thiophene-2-carboxamide] gave a pIC50 of 6.16.

`CCC(C)(C)C(=O)N1CCC(c2ccc(C(=O)NC3CN(c4cccnn4)C3)s2)CC1` [Example 850, 5-[1-(2,2-dimethylbutanoyl)piperidin-4-yl]-N-[1-(pyridazin-3-yl)azetidin-3-yl]thiophene-2-carboxamide] had a pIC50 of 7.15.

`Cc1ccc(N2CC(C(=O)Nc3ccc(C4CCN(C(=O)c5ccccc5F)CC4)cc3)C2)nn1` [Example 851, N-{4-[1-(2-fluorobenzoyl)piperidin-4-yl]phenyl}-1-(6-methylpyridazin-3-yl)azetidine-3-carboxamide] had a pIC50 of 8.56.

Compound `Cc1ccc(N2CC(C(=O)Nc3ccc(C4CCN(C(=O)C(C)(C)C)CC4)cc3)C2)nn1` [Example 852, N-{4-[1-(2,2-dimethylpropanoyl)piperidin-4-yl]phenyl}-1-(6-methylpyridazin-3-yl)azetidine-3-carboxamide] had a pIC50 of 7.91.

With `O=C(Nc1ccc(C2(F)CCN(C(=O)OCc3ccccc3)CC2)cc1)C1CN(c2ccc(Cl)nn2)C1` [Example 853, benzyl 4-[4-({[1-(6-chloropyridazin-3-yl)azetidin-3-yl]carbonyl}amino)phenyl]-4-fluoropiperidine-1-carboxylate], the pIC50 is less than 5.00.

Regarding `O=C(Nc1ccc(C2(O)CCN(C(=O)OCc3ccccc3)CC2)cc1)C1CN(c2ccc(Cl)nn2)C1` [Example 854, benzyl 4-[4-({[1-(6-chloropyridazin-3-yl)azetidin-3-yl]carbonyl}amino)phenyl]-4-hydroxypiperidine-1-carboxylate], the pIC50 is less than 5.00.

Compound `O=C(NC1CN(c2cccnn2)C1)c1ccc(C2CCN(C(=O)CCC(F)(F)F)CC2)s1` [Example 855, N-[1-(pyridazin-3-yl)azetidin-3-yl]-5-[1-(4,4,4-trifluorobutanoyl)piperidin-4-yl]thiophene-2-carboxamide] had a pIC50 of 6.13.
